According to patent US10869931B2, “Polyethylene glycol-modified angiogenesis inhibitor HM-1 and application thereof” (NANJING ANJI BIOLOGICAL TECHNOLOGY CO.,LTD, priority 2016, dated 2020):
Marks after values point to notes of the source that are not given here. Where no end group is shown, it is not given here.

Key:
[1] = system: human retinal vascular endothelial cells (HRCEC); test: MTT proliferation of human retinal vascular endothelial cells; type: cell-based; details: 48 h; for Inhibition rate: HRCEC proliferation; for A570 nm-A630 nm: HRCEC
Outline: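 HRCEC seeded at 3.0×10^4 cells/mL, adhered overnight, then exposed to polypeptide dilutions for 48 h at 37° C, 5% CO2; medium-only blank control. MTT added for 4 h, formazan dissolved in DMSO. PI (%)=1−administration group/negative group; three independent repeats, mean±SD, t test.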

[2] = system: corneal neovascularization in BALB/c mice; test: Alkali-burn corneal neovascularization in BALB/c mice (CD31 microvessel density); type: in vivo, mouse; details: for Inhibition rate: corneal microvessel density vs control; for Inhibition rate / MVD: day 14 after alkali burn, intravitreal once a day for 1 week; for MVD: microvessel density (CD31) of cornea
Description: (1) Preparation of corneal neovascularization model induced by alkali burn in BALB/c mice: mice were randomly grouped and labeled as mPEG-HM-1 experimental group and control group, 5 […] in each group, respectively, was given mPEG-HM-1 and saline by Intravitreal injection after alkali burn, once a day for 1 week. The inflammatory reaction and neovascularization of the cornea were observed under slit lamp microscope at 1 d, 7 d, and 14 d after alkali burn. On the 14th day after alkali burn, the corneal neovascularization was recorded under the slit lamp microscope in the anterior segment of the eye. All the mice were euthanized by cervical dislocation and the eyeballs were removed, washed with saline to rid of blood, and was fixed in 4% paraformaldehyde for 1.5 h, dehydrated in PBS containing 30% sucrose overnight, embedded in OCT frozen section embedding agent, stored in −80° C. refrigerator, frozen section 8 μm, and underwent immunocytochemical detection of CD31 expression. (2) Quantitative measurement of corneal tissue microvessel density: Microvessel density (MVD) is an indicator for evaluating angiogenesis. Vascular endothelial cells were labeled with anti-CD31 antibody by immunohistochemistry, and the number of microvessels per unit area was counted to measure the degree of neovascularization. Standards for counting microvessels: Microscopically, the endothelial cells or cell clusters that are clearly demarcated from adjacent tissues in the corneal tissue and stained brown or brown are counted in the neovascularization. The number of new blood vessels in the whole section was counted under a 10×20 microscope. After the corneal tissue was photographed, the entire corneal tissue area was calculated by image processing software Image J, and the neovascular density of the whole section was determined. The test was repeated 3 times independently. The results obtained by the test were expressed as mean±SD, and a statistical T test was performed. *P<0.05 was a significant difference, and **P<0.01 was a very significant difference.

[3] = system: carrageenan-induced toe swelling in SD rats; test: Carrageenan-induced acute toe swelling in rats; type: in vivo, rat; parameters: Swelling: unit not given here; details: for inhibition of carrageenan-induced toe swelling (in words): rats, once a day for 3 days
Description: SD rats were divided into blank model group, dexamethasone-positive group (5 mg/kg) and mPEG-HM-1 test group. The drug was administered once a day, and the model group was given the same volume of normal saline for 3 days and fed normally. At the first hour after the last administration, 0.1 mL of 1% carrageenan was injected subcutaneously into the right hind paw of the rats to induce inflammation. The volume of the foot was measured at 1 h, 3 h, 5 h, and 7 h after inflammation. The degree of swelling of the foot was calculated according to the following formula: the degree of swelling of the foot (mL)=the volume of the foot after inflammation−the volume before inflammation. Record the number of milliliters of spilled liquid (method: use the ballpoint pen to circle as the measurement mark at the protruding point of the right joint, and then put the right hind foot of each mouse into the volume measuring device, so that the hind limb is exposed outside the cylinder, and the depth of the immersion was determined by coinciding the circle with the liquid surface. After the foot enters the liquid, the liquid level rises, and the volume of the overflow liquid is the volume of the right hind foot of the rat, and the normal volume of the right hind foot of each mouse is sequentially determined).

Lung cancer tumor cells = test: MTT proliferation inhibition, lung cancer cells; type: cell-based, human; parameters: concentration or dose not given beside the values; details: 48 h
Outline: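 Tumour cells plated at 2×10^4 cells/mL, attached overnight, then exposed to dilutions of mPEG-HM-1 for 48 h at 37 °C, 5% CO2. MTT added 4 h, formazan dissolved in DMSO, absorbance 570/630 nm; growth inhibition = 1 − treated/untreated, three independent repeats, mean±SD.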

[4] = 20 mg/kg once a day for 3 days, 1 h after carrageenan
[5] = 20 mg/kg once a day for 3 days, 3 h after carrageenan
[6] = 20 mg/kg once a day for 3 days, 5 h after carrageenan
[7] = 20 mg/kg once a day for 3 days, 7 h after carrageenan
[8] = 40 mg/kg once a day for 3 days, 1 h after carrageenan
[9] = 40 mg/kg once a day for 3 days, 3 h after carrageenan
[10] = 40 mg/kg once a day for 3 days, 5 h after carrageenan
[11] = 40 mg/kg once a day for 3 days, 7 h after carrageenan
[12] = 80 mg/kg once a day for 3 days, 1 h after carrageenan
[13] = 80 mg/kg once a day for 3 days, 3 h after carrageenan
[14] = 80 mg/kg once a day for 3 days, 5 h after carrageenan
[15] = 80 mg/kg once a day for 3 days, 7 h after carrageenan

Substance | Inhibition rate ([1]; 40 μg/mL) | A570 nm-A630 nm ([1]; 40 μg/mL, MTT) | Inhibition rate ([1]; 60 μg/mL) | A570 nm-A630 nm ([1]; 60 μg/mL, MTT) | Inhibition rate ([1]; 80 μg/mL) | A570 nm-A630 nm ([1]; 80 μg/mL, MTT) | Inhibition rate [2] | MVD [2] | Swelling [3, 4] | Swelling [3, 5] | Swelling [3, 6] | Swelling [3, 7] | Swelling [3, 8] | Swelling [3, 9] | Swelling [3, 10] | Swelling [3, 11] | rate of growth inhibition (Lung cancer tumor cells) | Inhibition rate ([1]; 100 μg/mL) | A570 nm-A630 nm ([1]; 100 μg/mL, MTT) | Swelling [3, 12] | also measured
mPEG2-NHS10k-Arg-Gly-Ala-Asp-Arg-Ala-Gly-Gly-Gly-Gly-Arg-Gly-Asp ({mPEG2‑NHS 10 kDa}-RGADRAGGGGRGD) [mPEG2-NHS10k-HM-1] | 45.83%* | 0.7160 ± 0.07829 | 54.72%** | 0.5985 ± 0.07472 | 65.13%* | 0.4609 ± 0.07165 | 50.07% | 33.32 ± 3.871** | 0.24 ± 0.12 | 0.37 ± 0.16 | 0.42 ± 0.16 | 0.30 ± 0.12 | 0.21 ± 0.10 | 0.31 ± 0.17 | 0.35 ± 0.11 | 0.33 ± 0.15 | 45.28 ± 13.96% |  |  |  | inhibition rate of HRCEC proliferation ([1]; 80 μg/mL, MTT): 65.13%; inhibition rate of corneal neovascularization ([2]; BALB/c mice, alkali burn, intravitreal injection once a day for 1 week): 50.07%; inhibition of carrageenan-induced toe swelling (in words) ([3]; 40 mg/kg): most effective
mPEG-SC20k-Arg-Gly-Ala-Asp-Arg-Ala-Gly-Gly-Gly-Gly-Arg-Gly-Asp ({mPEG‑SC 20 kDa}-RGADRAGGGGRGD) [mPEG-SC20k-HM-1] |  |  | 45.71%* | 0.7116 ± 0.07539 | 53.92%** | 0.6040 ± 0.06996 | 46.53% | 35.68 ± 4.842** |  |  |  |  | 0.28 ± 0.14 | 0.35 ± 0.17 | 0.42 ± 0.15 | 0.37 ± 0.16 | 53.87 ± 15.66% | 66.64%* | 0.4372 ± 0.0721 | 0.26 ± 0.10 | Swelling [3, 13]: 0.33 ± 0.12; Swelling [3, 14]: 0.40 ± 0.13; Swelling [3, 15]: 0.32 ± 0.17; inhibition of carrageenan-induced toe swelling (in words) ([3]; 80 mg/kg): most effective
mPEG-SC40k-Arg-Gly-Ala-Asp-Arg-Ala-Gly-Gly-Gly-Gly-Arg-Gly-Asp ({mPEG‑SC 40 kDa}-RGADRAGGGGRGD) [mPEG-SC40k-HM-1] |  |  |  |  | 42.27%* | 0.7567 ± 0.07109 | 43.48% | 37.72 ± 4.153** |  |  |  |  |  |  |  |  | 51.32 ± 16.29% | 53.16%** | 0.6139 ± 0.0712 | 0.25 ± 0.13 | Inhibition rate ([1]; 120 μg/mL): 63.68%*; A570 nm-A630 nm ([1]; 120 μg/mL, MTT): 0.4760 ± 0.07009; Swelling [3, 13]: 0.34 ± 0.12; Swelling [3, 14]: 0.44 ± 0.15; Swelling [3, 15]: 0.34 ± 0.16; Swelling ([3]; 160 mg/kg once a day for 3 days, 1 h after carrageenan): 0.24 ± 0.12; Swelling ([3]; 160 mg/kg once a day for 3 days, 3 h after carrageenan): 0.33 ± 0.13; Swelling ([3]; 160 mg/kg once a day for 3 days, 5 h after carrageenan): 0.43 ± 0.12; Swelling ([3]; 160 mg/kg once a day for 3 days, 7 h after carrageenan): 0.33 ± 0.13
mPEG-bALD20k-Arg-Gly-Ala-Asp-Arg-Ala-Gly-Gly-Gly-Gly-Arg-Gly-Asp ({mPEG‑bALD 20 kDa}-RGADRAGGGGRGD) [mPEG-bALD20k-HM-1] |  |  | 47.53%* | 0.6987 ± 0.07838 | 57.32%** | 0.5683 ± 0.07055 | 47.84% | 34.81 ± 6.817** |  |  |  |  | 0.25 ± 0.15 | 0.35 ± 0.14 | 0.42 ± 0.15 | 0.36 ± 0.18 | 65.31 ± 15.54% | 69.12%* | 0.4112 ± 0.07405 |  | 
mPEG-ALD5k-Arg-Gly-Ala-Asp-Arg-Ala-Gly-Gly-Gly-Gly-Arg-Gly-Asp ({mPEG‑ALD 5 kDa}-RGADRAGGGGRGD) [mPEG-ALD5k-HM-1] | 51.93%** | 0.6301 ± 0.08011 | 61.53%* | 05042 ± 0.08135 |  |  | 45.09% | 36.64 ± 3.909* | 0.21 ± 0.11 | 0.34 ± 0.19 | 0.37 ± 0.11 | 0.35 ± 0.13 |  |  |  |  | 45.76 ± 13.20% |  |  |  | Inhibition rate ([1]; 20 μg/mL): 42.02%*; A570 nm-A630 nm ([1]; 20 μg/mL, MTT): 0.7599 ± 0.08933; Swelling ([3]; 10 mg/kg once a day for 3 days, 1 h after carrageenan): 0.22 ± 0.10; Swelling ([3]; 10 mg/kg once a day for 3 days, 3 h after carrageenan): 0.35 ± 0.13; Swelling ([3]; 10 mg/kg once a day for 3 days, 5 h after carrageenan): 0.41 ± 0.15; Swelling ([3]; 10 mg/kg once a day for 3 days, 7 h after carrageenan): 0.31 ± 0.12
